The test system of the test is LPS-challenged mice. In words: LPS-induced mortality in mouse endotoxemia model. It is filed as in vivo, C57BL/6 mice. Conditions: 5 mg/kg retro-orbital prior to i.p. LPS; 10 mice/group; Kaplan-Meier.

With Integrilin, the “LPS-induced mortality (Integrilin)” value is given as “showed a trend in reducing”.
